From US9868720B2 (Genentech, Inc., priority 2013, dated 2018)
Blank lines part the entries; values can stand above or below the compound they belong to.

Molecular target: DLK kinase (N-terminally GST-tagged DLK, catalytic domain amino acid 1-520) (Homo sapiens (Human), UniProt Q12852)
Experiment: DLK TR-FRET assay
Assay type: biochemical
Conditions: 30 μM ATP, MKK4 K131M substrate, read-out: DLK HTRF (Ki)
Experimental: DLK TR-FRET assay: DLK kinase reactions (20 μL) containing 5 nM N-terminally GST-tagged DLK (catalytic domain amino acid 1-520) (Carna Bioscience), 40 nM N-terminally HIS-tagged MKK4 K131M substrate, and 30 μM ATP in kinase reaction buffer (50 mM HEPES, pH 7.5, 0.01% Triton X-100, 0.01% Bovine γ-Globulins, 2 mM DTT, 10 mM MgCl2 and 1 mM EGTA), and testing compound 1:3 serial diluted starting at 20 uM were incubated at ambient temperature for 60 minutes in 384 well OptiPlate (Perkin Elmer). To quench kinase reactions and detect phosphorylated MKK4, 15 μL of TR-FRET antibody mixture containing 2 nM anti-phosphorylated MKK4 labeled with Europium cryptate (Cisbio) and 23 nM anti-HIS labeled with D2 (Cisbio) in detection buffer (25 mM Tris pH 7.5, 100 mM NaCl, 100 mM EDTA, 0.01% Tween-20, and 200 mM KF) was added to the reaction mixture. The detection mixture was incubated for 3 hours at ambient temperature and the TR-FRET was detected with an EnVision multilabel plate reader (Perkin-Elmer) using the LANCE/DELFIA Dual Enh label from Perkin-Elmer (excitation filter: UV2 (TRF) 320 and emission filters: APC 665 and Europium 615).

Sequence of DLK kinase (N-terminally GST-tagged DLK, catalytic domain amino acid 1-520) (Q12852 1-520): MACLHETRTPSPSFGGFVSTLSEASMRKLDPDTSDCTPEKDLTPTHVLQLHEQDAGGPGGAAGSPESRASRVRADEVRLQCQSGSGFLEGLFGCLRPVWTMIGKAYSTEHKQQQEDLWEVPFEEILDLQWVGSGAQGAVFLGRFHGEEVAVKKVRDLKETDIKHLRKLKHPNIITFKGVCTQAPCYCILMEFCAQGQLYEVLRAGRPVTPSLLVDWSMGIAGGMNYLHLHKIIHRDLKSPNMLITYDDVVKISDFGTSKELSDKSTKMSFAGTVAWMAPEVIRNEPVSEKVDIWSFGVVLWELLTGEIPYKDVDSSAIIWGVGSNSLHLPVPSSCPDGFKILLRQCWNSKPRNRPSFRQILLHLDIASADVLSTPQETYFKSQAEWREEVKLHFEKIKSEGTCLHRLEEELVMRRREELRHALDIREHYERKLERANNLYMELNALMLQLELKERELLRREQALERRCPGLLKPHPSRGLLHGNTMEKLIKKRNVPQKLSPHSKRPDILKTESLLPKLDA

Compound: CCc1ccnc(Nc2cc(C3CCCN(C(=O)c4ccccc4)C3)nc(C)n2)c1 (stereo not drawn)
- Ki: 0.195 µM

Compound: Cc1ccc(Nc2cc(C3CCCN(C(=O)c4ccccc4)C3)nc(C)n2)nc1 (stereo not drawn) [Example 5]
- Ki: 0.401 µM

Compound: Cc1nc(Nc2cc(C(N)=O)ccn2)cc(C2CCCN(C(=O)c3ccccc3)C2)n1 (stereo not drawn) [Example 8]
- Ki: 0.795 µM

Compound: Cc1nc(Nc2cc(C(F)(F)F)ccn2)cc(C2CCCN(C(=O)c3ccc(F)cc3)C2)n1 (stereo not drawn) [Example 22, (4-Fluoro-phenyl)-{3-[2-methyl-6-(4-trifluoro-methyl-pyridin-2-ylamino)-pyrimidin-4-yl]-piperidin-1-yl}-methanone]
- Ki: 0.0436 µM

Compound: Cc1ccnc(Nc2cc(C3CCN(C(=O)c4ccccc4)CC3)nc(N3CCCC3)n2)c1 [Example 25, {4-[6-(4-Methyl-pyridin-2-ylamino)-2-pyrrolidin-1-yl-pyrimidin-4-yl]-piperidin-1-yl}-phenyl-methanone]
- Ki: 0.05 µM

Compound: Cc1ccnc(Nc2cc(C3CCCN(Cc4cn(C)nc4C)C3)nc(C)n2)c1 (stereo not drawn) [Example 38, {6-[1-(1,3-Dimethyl-1H-pyrazol-4-ylmethyl)-piperidin-3-yl]-2-methyl-pyrimidin-4-yl}-(4-methyl-pyridin-2-yl)-amine]
- Ki: > 2.1 µM

Compound: CN(CCO)c1nc(Nc2cc(C(F)(F)F)ccn2)cc(C2CCNC2)n1 (stereo not drawn) [Example 47, 2-{Methyl-[4-pyrrolidin-3-yl-6-(4-trifluoromethyl-pyridin-2-ylamino)-pyrimidin-2-yl]-amino}-ethanol]
- Ki: 0.0126 µM

Compound: Cc1ccnc(Nc2cc(C3CCCN(Cc4cn5ccccc5n4)C3)nc(C)n2)c1 (stereo not drawn) [Example 51, [6-(1-Imidazo[1,2-a]pyridin-2-ylmethyl-piperidin-3-yl)-2-methyl-pyrimidin-4-yl]-(4-methyl-pyridin-2-yl)-amine]
- Ki: 0.166 µM

Compound: FC(F)(F)c1ccnc(Nc2cc(C3CCNC3)nc(N3CCCC3)n2)c1 (stereo not drawn) [Example 66, (2-Pyrrolidin-1-yl-6-pyr-rolidin-3-yl-pyrimidin-4-yl)-(4-trifluoromethyl-pyridin-2-yl)-amine]
- Ki: 0.0048 µM

The remaining lines, values ahead:

- Ki: 0.691 µM
Compound: Cc1nc(Nc2ccc(C(F)(F)F)cn2)cc(C2CCCN(C(=O)c3ccccc3)C2)n1 (stereo not drawn)

- Ki: 0.0521 µM
Compound: Cc1nc(Nc2cc(C(F)(F)F)ccn2)cc(C2CCCN(C(=O)c3ccc(F)cc3Cl)C2)n1 (stereo not drawn)

- Ki: 0.0207 µM
Compound: COc1cc(C)ccc1C(=O)N1CCCC(c2cc(Nc3cc(C)ccn3)nc(C)n2)C1 (stereo not drawn) [Example 7]

- Ki: 0.0607 µM
Compound: CCOc1ccnc(Nc2cc(C3CCCN(C(=O)c4ccccc4)C3)nc(C)n2)c1 (stereo not drawn) [Example 21, {3-[6-(4-Ethoxy-pyridin-2-ylamino)-2-methyl-pyrimidin-4-yl]-piperidin-1-yl}-phenyl-methanone]

- Ki: 0.0205 µM
Compound: Cc1ccnc(Nc2cc(C3CCNCC3)nc(N3CCCC3)n2)c1 [Example 24, (4-Methyl-pyridin-2-yl)-(6-piperidin-4-yl-2-pyrrolidin-1-yl-pyrimidin-4-yl)-amine]

- Ki: 0.392 µM
Compound: Cc1ccnc(Nc2cc(C3CCCN(Cc4cc(C)nn4C)C3)nc(C)n2)c1 (stereo not drawn) [Example 40, {6-[1-(2,5-Dimethyl-2H-pyrazol-3-ylmethyl)-piperidin-3-yl]-2-methyl-pyrimidin-4-yl}-(4-methyl-pyridin-2-yl)-amine]

- Ki: 0.31 µM
Compound: Cc1ccnc(Nc2cc(C3CCCN(Cc4ccc5nccn5c4)C3)nc(C)n2)c1 (stereo not drawn) [Example 49, [6-(1-Imidazo[1,2-a]pyridin-6-ylmethyl-piperidin-3-yl)-2-methyl-pyrimidin-4-yl]-(4-methyl-pyridin-2-yl)-amine]

- Ki: 0.293 µM
Compound: Cc1ccnc(Nc2cc(C3CCCN(Cc4ccccn4)C3)nc(C)n2)c1 (stereo not drawn) [Example 56, (4-Methyl-pyridin-2-yl)-[2-methyl-6-(1-pyridin-2-ylmethyl-piperidin-3-yl)-pyrimidin-4-yl]-amine]

- Ki: 0.000735 µM
Compound: CC1CCCN1c1nc(Nc2cc(C(F)(F)F)ccn2)cc(C2CCNCC2)n1 (stereo not drawn) [Example 65, [2-(2-Methyl-pyrrolidin-1-yl)-6-piperidin-4-yl-pyrimidin-4-yl]-(4-tri-fluoromethyl-pyridin-2-yl)-amine]
